{"source": "PubChem BioAssay (NCI)", "assay_in_all_cases": "inhibition of tumour cell growth, NCI panel, 48 h", "key": {"BT-549 breast": {"system": "BT-549 breast"}, "HCC-2998 colon": {"system": "HCC-2998 colon"}, "HCT-116 colon": {"system": "HCT-116 colon"}, "KM12 colon": {"system": "KM12 colon"}, "M14 melanoma": {"system": "M14 melanoma"}, "MDA-MB-435": {"system": "MDA-MB-435"}, "MOLT-4 leukemia": {"system": "MOLT-4 leukemia"}, "T-47D breast": {"system": "T-47D breast"}, "EKVX NSCLC": {"system": "EKVX NSCLC"}, "PC-3 prostate": {"system": "PC-3 prostate"}}, "note": "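Tested at 5 concentrations; 48 h exposure; 96-well plates; endpoints linearly interpolated, else capped at highest concentration. Here, GI50 denotes the concentration required for 50% inhibition of growth. TGI marks complete inhibition of growth.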", "data": [{"smiles": "O=C(Nc1nc(-c2ccc(Cl)cc2)cs1)c1cc(O)c(O)c(O)c1", "values": [{"measurement": "GI50", "setting": "BT-549 breast", "result": 252, "unit": "µM"}, {"measurement": "TGI", "setting": "BT-549 breast", "result": 1870, "unit": "µM"}, {"measurement": "GI50", "setting": "HCC-2998 colon", "result": 700, "unit": "µM"}, {"measurement": "TGI", "setting": "HCC-2998 colon", "result": 2080, "unit": "µM"}, {"measurement": "GI50", "setting": "HCT-116 colon", "result": 195, "unit": "µM"}, {"measurement": "TGI", "setting": "HCT-116 colon", "result": 922, "unit": "µM"}, {"measurement": "GI50", "setting": "KM12 colon", "result": 315, "unit": "µM"}, {"measurement": "TGI", "setting": "KM12 colon", "result": 1460, "unit": "µM"}, {"measurement": "GI50", "setting": "M14 melanoma", "result": 244, "unit": "µM"}, {"measurement": "TGI", "setting": "M14 melanoma", "result": 4610, "unit": "µM"}, {"measurement": "GI50", "setting": "MDA-MB-435", "result": 266, "unit": "µM"}, {"measurement": "TGI", "setting": "MDA-MB-435", "result": 2980, "unit": "µM"}, {"measurement": "GI50", "setting": "MOLT-4 leukemia", "result": 130, "unit": "µM"}, {"measurement": "TGI", "setting": "MOLT-4 leukemia", "result": 840, "unit": "µM"}, {"measurement": "GI50", "setting": "T-47D breast", "result": 125, "unit": "µM"}, {"measurement": "TGI", "setting": "T-47D breast", "result": 671, "unit": "µM"}]}, {"smiles": "COC(=O)C1C(C(=O)O)C2(c3ccccc3)C(=O)C1(c1ccccc1)C(c1ccccc1)=C2c1ccccc1", "note": "(stereo not given)", "values": [{"measurement": "GI50", "setting": "BT-549 breast", "result": 18, "unit": "µM"}, {"measurement": "TGI", "setting": "BT-549 breast", "result": 37.6, "unit": "µM"}, {"measurement": "GI50", "setting": "EKVX NSCLC", "result": 18.8, "unit": "µM"}, {"measurement": "TGI", "setting": "EKVX NSCLC", "result": 42.3, "unit": "µM"}, {"measurement": "GI50", "setting": "HCC-2998 colon", "result": 15.7, "unit": "µM"}, {"measurement": "TGI", "setting": "HCC-2998 colon", "result": 29.6, "unit": "µM"}, {"measurement": "GI50", "setting": "HCT-116 colon", "result": 19.6, "unit": "µM"}, {"measurement": "TGI", "setting": "HCT-116 colon", "result": 35.2, "unit": "µM"}, {"measurement": "GI50", "setting": "KM12 colon", "result": 16, "unit": "µM"}, {"measurement": "TGI", "setting": "KM12 colon", "result": 38, "unit": "µM"}, {"measurement": "GI50", "setting": "M14 melanoma", "result": 19.6, "unit": "µM"}, {"measurement": "TGI", "setting": "M14 melanoma", "result": 35.7, "unit": "µM"}, {"measurement": "GI50", "setting": "MDA-MB-435", "result": 24.4, "unit": "µM"}, {"measurement": "TGI", "setting": "MDA-MB-435", "result": 58.9, "unit": "µM"}, {"measurement": "GI50", "setting": "MOLT-4 leukemia", "result": 14.5, "unit": "µM"}, {"measurement": "TGI", "setting": "MOLT-4 leukemia", "result": 36, "unit": "µM"}, {"measurement": "GI50", "setting": "PC-3 prostate", "result": 15.2, "unit": "µM"}, {"measurement": "TGI", "setting": "PC-3 prostate", "result": 32.5, "unit": "µM"}]}, {"smiles": "CCc1nc(C)cn1C(=O)OCc1nc2nc(Cl)nc(N3CCOCC3)c2[nH]1", "values": [{"measurement": "GI50", "setting": "BT-549 breast", "result": 1.55, "unit": "µM"}, {"measurement": "TGI", "setting": "BT-549 breast", "result": 4.26, "unit": "µM"}, {"measurement": "GI50", "setting": "EKVX NSCLC", "result": 1.43, "unit": "µM"}, {"measurement": "TGI", "setting": "EKVX NSCLC", "result": 3.07, "unit": "µM"}, {"measurement": "GI50", "setting": "HCC-2998 colon", "result": 1.84, "unit": "µM"}, {"measurement": "TGI", "setting": "HCC-2998 colon", "result": 3.44, "unit": "µM"}, {"measurement": "GI50", "setting": "HCT-116 colon", "result": 0.364, "unit": "µM"}, {"measurement": "TGI", "setting": "HCT-116 colon", "result": 2.3, "unit": "µM"}, {"measurement": "GI50", "setting": "KM12 colon", "result": 1.56, "unit": "µM"}, {"measurement": "TGI", "setting": "KM12 colon", "result": 3.29, "unit": "µM"}, {"measurement": "GI50", "setting": "M14 melanoma", "result": 1.27, "unit": "µM"}, {"measurement": "TGI", "setting": "M14 melanoma", "result": 3.1, "unit": "µM"}, {"measurement": "GI50", "setting": "MDA-MB-435", "result": 1.36, "unit": "µM"}, {"measurement": "TGI", "setting": "MDA-MB-435", "result": 2.71, "unit": "µM"}, {"measurement": "GI50", "setting": "MOLT-4 leukemia", "result": 1.01, "unit": "µM"}, {"measurement": "TGI", "setting": "MOLT-4 leukemia", "result": 3.79, "unit": "µM"}, {"measurement": "GI50", "setting": "PC-3 prostate", "result": 1.25, "unit": "µM"}, {"measurement": "TGI", "setting": "PC-3 prostate", "result": 3.01, "unit": "µM"}]}, {"smiles": "C=C1C(=O)O[C@H](c2ccoc2)C[C@@H]1[C@@]1(C)CCCC2(C)C(=O)OCC21", "note": "(stereo not given in full)", "values": [{"measurement": "TGI", "setting": "EKVX NSCLC", "result": "> 100", "unit": "µM"}, {"measurement": "TGI", "setting": "HCC-2998 colon", "result": "> 100", "unit": "µM"}, {"measurement": "TGI", "setting": "HCT-116 colon", "result": "> 100", "unit": "µM"}, {"measurement": "TGI", "setting": "KM12 colon", "result": "> 100", "unit": "µM"}, {"measurement": "TGI", "setting": "M14 melanoma", "result": "> 100", "unit": "µM"}, {"measurement": "TGI", "setting": "MOLT-4 leukemia", "result": "> 100", "unit": "µM"}]}, {"smiles": "O=C(Nc1ccncc1)C(=O)c1cn(S(=O)(=O)c2cccc(Cl)c2)c2ccccc12", "values": [{"measurement": "GI50", "setting": "BT-549 breast", "result": 5.85, "unit": "µM"}, {"measurement": "TGI", "setting": "BT-549 breast", "result": 38.3, "unit": "µM"}, {"measurement": "GI50", "setting": "EKVX NSCLC", "result": 5.16, "unit": "µM"}, {"measurement": "TGI", "setting": "EKVX NSCLC", "result": "> 100", "unit": "µM"}, {"measurement": "GI50", "setting": "HCC-2998 colon", "result": 13.9, "unit": "µM"}, {"measurement": "TGI", "setting": "HCC-2998 colon", "result": "> 100", "unit": "µM"}, {"measurement": "GI50", "setting": "HCT-116 colon", "result": 3.1, "unit": "µM"}, {"measurement": "TGI", "setting": "HCT-116 colon", "result": 86.8, "unit": "µM"}, {"measurement": "GI50", "setting": "KM12 colon", "result": 3.96, "unit": "µM"}, {"measurement": "TGI", "setting": "KM12 colon", "result": "> 100", "unit": "µM"}, {"measurement": "GI50", "setting": "M14 melanoma", "result": 4.09, "unit": "µM"}, {"measurement": "TGI", "setting": "M14 melanoma", "result": 32.6, "unit": "µM"}, {"measurement": "GI50", "setting": "MOLT-4 leukemia", "result": 5.55, "unit": "µM"}, {"measurement": "TGI", "setting": "MOLT-4 leukemia", "result": "> 100", "unit": "µM"}, {"measurement": "GI50", "setting": "PC-3 prostate", "result": 11.8, "unit": "µM"}, {"measurement": "TGI", "setting": "PC-3 prostate", "result": "> 100", "unit": "µM"}, {"measurement": "GI50", "setting": "T-47D breast", "result": 9.08, "unit": "µM"}, {"measurement": "TGI", "setting": "T-47D breast", "result": "> 100", "unit": "µM"}]}, {"smiles": "O=c1nc2sc3ccccc3c(=O)n2[nH]1", "values": [{"measurement": "TGI", "setting": "EKVX NSCLC", "result": "> 100", "unit": "µM"}, {"measurement": "TGI", "setting": "HCC-2998 colon", "result": "> 100", "unit": "µM"}, {"measurement": "TGI", "setting": "HCT-116 colon", "result": "> 100", "unit": "µM"}, {"measurement": "TGI", "setting": "KM12 colon", "result": "> 100", "unit": "µM"}, {"measurement": "TGI", "setting": "M14 melanoma", "result": "> 100", "unit": "µM"}, {"measurement": "TGI", "setting": "MOLT-4 leukemia", "result": "> 100", "unit": "µM"}]}, {"smiles": "N#C/C(=C\\c1c(O)cc(O)cc1O)C(N)=O", "values": [{"measurement": "TGI", "setting": "EKVX NSCLC", "result": "> 100", "unit": "µM"}, {"measurement": "TGI", "setting": "HCC-2998 colon", "result": "> 100", "unit": "µM"}, {"measurement": "TGI", "setting": "HCT-116 colon", "result": "> 100", "unit": "µM"}, {"measurement": "TGI", "setting": "KM12 colon", "result": "> 100", "unit": "µM"}, {"measurement": "TGI", "setting": "M14 melanoma", "result": "> 100", "unit": "µM"}, {"measurement": "TGI", "setting": "MOLT-4 leukemia", "result": "> 100", "unit": "µM"}]}, {"smiles": "Cc1ccccc1NC(=O)/C(=N\\NC(N)=S)C(C#N)c1ccccc1", "note": "(stereo not given)", "values": [{"measurement": "TGI", "setting": "EKVX NSCLC", "result": "> 100", "unit": "µM"}, {"measurement": "TGI", "setting": "HCC-2998 colon", "result": "> 100", "unit": "µM"}, {"measurement": "TGI", "setting": "HCT-116 colon", "result": "> 100", "unit": "µM"}, {"measurement": "TGI", "setting": "KM12 colon", "result": "> 100", "unit": "µM"}, {"measurement": "TGI", "setting": "M14 melanoma", "result": "> 100", "unit": "µM"}, {"measurement": "TGI", "setting": "MOLT-4 leukemia", "result": "> 100", "unit": "µM"}]}, {"smiles": "COc1cccc(Nc2ncnc3cc(NC(=O)CCl)ccc23)c1", "values": [{"measurement": "GI50", "setting": "BT-549 breast", "result": 1.23, "unit": "µM"}, {"measurement": "TGI", "setting": "BT-549 breast", "result": 2.69, "unit": "µM"}, {"measurement": "GI50", "setting": "EKVX NSCLC", "result": 1.56, "unit": "µM"}, {"measurement": "TGI", "setting": "EKVX NSCLC", "result": 4.49, "unit": "µM"}, {"measurement": "GI50", "setting": "HCC-2998 colon", "result": 1.81, "unit": "µM"}, {"measurement": "TGI", "setting": "HCC-2998 colon", "result": 3.7, "unit": "µM"}, {"measurement": "GI50", "setting": "HCT-116 colon", "result": 1.02, "unit": "µM"}, {"measurement": "TGI", "setting": "HCT-116 colon", "result": 2.47, "unit": "µM"}, {"measurement": "GI50", "setting": "KM12 colon", "result": 1.36, "unit": "µM"}, {"measurement": "TGI", "setting": "KM12 colon", "result": 2.9, "unit": "µM"}, {"measurement": "GI50", "setting": "M14 melanoma", "result": 1.39, "unit": "µM"}, {"measurement": "TGI", "setting": "M14 melanoma", "result": 3, "unit": "µM"}, {"measurement": "GI50", "setting": "MDA-MB-435", "result": 0.821, "unit": "µM"}, {"measurement": "TGI", "setting": "MDA-MB-435", "result": 2.21, "unit": "µM"}, {"measurement": "GI50", "setting": "PC-3 prostate", "result": 1.12, "unit": "µM"}, {"measurement": "TGI", "setting": "PC-3 prostate", "result": 2.46, "unit": "µM"}]}]}
